Data on one compound can be found in patent US7683171B2, “1H-imidazo[4,5-d]thieno[3,2-b]pyridine based tricyclic compounds and pharmaceutical compositions comprising same” (Bristol-Myers Squibb Company, priority 2005, dated 2010).

The data set deals with T98. Description: Ames testing. Format: cell-based. The following applies: T98 with S9 activation.

`Cl.Cn1cnc2c(N)nc3cc(-c4cccc(F)c4)sc3c21` [Example A5, 7-(3-Fluorophenyl)-1-methyl-1H-imidazo[4,5-d]thieno[3,2-b]pyridin-4-amine hydrochloride salt]: the Ames testing result is on record as “positive”.
